{"source": "paper PMC7163137", "about": "“The Pyrimidine Analog FNC Potently Inhibits the Replication of Multiple Enteroviruses” (Journal of Virology, 2020)", "key": {"[1]": {"molecular_target": "T1, EV71 3D^pol (Human enterovirus 71, UniProt Q66478)", "T1 construct": "EV71 3D^pol was cloned into the pET28a expression vector with a His tag at the N terminus; His tag (N); made in house; host or cells: E. coli BL21-derived cells", "T1 sequence (Q66478 1732-2193)": "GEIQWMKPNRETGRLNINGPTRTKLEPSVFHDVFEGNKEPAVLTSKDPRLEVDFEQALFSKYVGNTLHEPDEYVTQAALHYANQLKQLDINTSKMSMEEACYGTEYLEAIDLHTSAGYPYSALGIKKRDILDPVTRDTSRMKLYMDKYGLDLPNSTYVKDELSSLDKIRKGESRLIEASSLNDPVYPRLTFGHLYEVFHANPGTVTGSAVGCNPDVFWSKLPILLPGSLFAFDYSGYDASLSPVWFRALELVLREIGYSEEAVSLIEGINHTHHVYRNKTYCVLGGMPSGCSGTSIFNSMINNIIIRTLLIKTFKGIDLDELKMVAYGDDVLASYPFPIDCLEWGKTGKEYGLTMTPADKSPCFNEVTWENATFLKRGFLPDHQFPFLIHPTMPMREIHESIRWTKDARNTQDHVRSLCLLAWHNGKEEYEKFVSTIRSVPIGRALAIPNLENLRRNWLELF", "assay": "Isothermal titration calorimetry with EV71 3Dpol", "format": "binding", "description": "(§1) EV71 3D^pol was cloned into the pET28a expression vector with a His tag at the N terminus and expressed in E. coli BL21-derived cells. The 3D^pol protein was purified by Ni-column affinity chromatography, and a gel filtration column was connected to an ÄKTA system (General Electric Company, CT, USA). The purity of the resulting 3D^pol protein was determined through SDS-PAGE analysis.\nITC experiments were performed by using an ITC200 instrument (MicroCal, Inc., Northampton, MA, USA). The concentration of 3D^pol was 100 μM. FNC was diluted with buffer (pH 7.5, 25 mM HEPES, 100 mM NaCl) to yield a solution of 1.0 mM. The sample cell was filled with 3D^pol protein solution, and FNC was added by syringe at 25°C. The stirring rate was 750 r/min. All data were analyzed using the Origin 7.0 software."}, "[2]": {"tested_on": "CVB3", "assay": "Anti-CVB3 activity in infected RD cells (RT-qPCR)", "settings": "Enterovirus B, read-out: EC50 for CVB3"}, "[3]": {"tested_on": "EV71 CC063", "assay": "Lethal EV71 challenge, neonatal mouse model", "format": "in vivo, ICR neonatal mice", "description": "(§2) One-day-old specific pathogen-free (SPF) ICR neonatal mice (Beijing Institute of Radiation Medicine) were used to establish the animal model of viral infection. All welfare and experimental procedures were carried out strictly in accordance with the Guide for the Care and Use of Laboratory Animals and the related ethical regulations of the Beijing Institute of Radiation Medicine. All efforts were made to minimize animal suffering. The neonatal mice were randomly divided into five groups, and each group contained three litters (n = 8 to ∼10 per litter). One group was inoculated intracerebrally with DMEM (10 μl/mouse) and after 1 h injected intraperitoneally with DMSO (control group). Two groups were inoculated intracerebrally with EV71 CC063 (10^5.5 CCID50 ml^−1) and after 1 h injected intraperitoneally with FNC or DMSO. Two groups were inoculated intracerebrally with CA16 CC045 (10^2.7 CCID50 ml^−1) and after 1 h injected intraperitoneally with FNC or DMSO. The survival rates and mean clinical symptoms were monitored daily for 15 days postinfection. The mean clinical symptoms were scored as follows: 0, healthy; 1, lethargy or weakness; 2, wasting; 3, limb tremors; 4, paralysis in hind limb; and 5, moribund or dead. The control mice were healthy throughout the experiments.\n(§3) After intracerebral inoculation with EV71 CC063 viruses, CA16 CC045 viruses, or culture medium, three experimental neonatal mice and three control neonatal mice were subjected to viral load detection. The EV71 infection and control groups were collected on day 9 postinfection, and the CA16 infection and control groups were collected on day 14 postinfection. All tissues, including brain, lung, spine skeletal muscle, and hind-limb muscle, were weighed individually, homogenized in sterile PBS, disrupted by freeze-thawing, and centrifuged. The samples were treated with TRIzol (Invitrogen) for RNA extraction and viral load determination by real-time PCR, as described previously ([42]). Viral loads were determined by real-time PCR and expressed as log10 copies/mg tissue.\nA total of 15 mice were sampled, as follows: three normal mice from the mock-infected group (the clinical score of grade 0), three mice from the EV71-infected and DMSO-treated group (the clinical score of grade 4), three mice from the CA16-infected and DMSO-treated group (the clinical score of grade 3), three mice from the EV71-infected and FNC-treated group (the clinical score of grade 3), and three mice from the CA16-infected and FNC-treated group (the clinical score of grade 1). After the mice were anesthetized, lung, brain, spine skeletal muscle, and hind-limb muscle tissues were harvested and immersion fixed with 10% formaldehyde solution for 5 days. […]"}, "[4]": {"tested_on": "deoxycytidine kinase", "set-up": "method as in PMID 18003608", "settings": "substrate for deoxycytidine kinase ref 32; cited from earlier work"}, "[5]": {"tested_on": "CA16 CC045", "assay": "Lethal CA16 challenge, neonatal mouse model", "format": "in vivo, ICR neonatal mice", "description": "as §2\nas §3, with “tissue. […]” for “tissue.”"}, "[6]": {"tested_on": "RSV", "assay": "Anti-RSV activity in HEK293T cells (Western blot, RT-qPCR)", "format": "cell-based, respiratory syncytial virus", "settings": "MOI 0.5, 48 h, safe drug concentrations"}, "[7]": {"tested_on": "HEK293T cells", "assay": "Cytotoxicity, CCK-8 cell viability assay in HEK293T cells", "format": "cell-based", "settings": "48 h", "description": "(§4) The cells were treated with various concentrations of compounds dissolved in DMSO for 48 h, and then cell viability was assayed using a Cell Counting kit‑8 (CCK-8; Beyotime, Shanghai, China). In brief, 10 μl of the CCK‑8 solution was added, and the cells were incubated for an additional 2 h. Medium without cells was used as a blank control. Absorbance at a wavelength of 450 nm was measured using a microplate reader. Cell viability was determined as a percentage of that of the control. All cell proliferation assays were performed in triplicate and repeated in three independent experiments."}, "[8]": {"tested_on": "MDCK cells", "assay": "Cytotoxicity, CCK-8 cell viability assay in MDCK cells", "format": "cell-based", "settings": "48 h", "description": "as §4"}, "[9]": {"tested_on": "EV71", "assay": "Anti-EV71 activity in infected RD cells (Western blot, RT-qPCR, virus titer)"}, "[10]": {"tested_on": "CA16", "assay": "Anti-CA16 activity in infected RD cells (RT-qPCR)", "settings": "Enterovirus A, read-out: EC50 for CA16"}, "[11]": {"tested_on": "influenza A(H1N1) virus", "assay": "Anti-influenza A(H1N1) activity in MDCK cells (Western blot, RT-qPCR)", "format": "cell-based"}, "[12]": {"tested_on": "EVD68", "assay": "Anti-EVD68 activity in infected RD cells (RT-qPCR)", "settings": "Enterovirus D, read-out: EC50 for EVD68"}, "[13]": {"assay": "Cytotoxicity, CCK-8 cell viability assay in RD cells", "format": "cell-based, human", "settings": "human", "description": "as §4"}, "[14]": {"tested_on": "RD cells", "assay": "Cytotoxicity, CCK-8 cell viability assay in RD cells", "format": "cell-based, human", "settings": "48 h", "description": "as §4"}, "[15]": {"molecular_target": "T1, EV71 3D^pol", "assay": "Fluorescence-based activity assay for EV71 3Dpol", "format": "biochemical", "settings": "poly(A)/UTP, SYTO 9, 30°C", "description": "as §1\nWe followed the novel fluorescence-based method for the detection of polymerase activity of EV71 3D^pol ([52]). Reactions were performed in individual wells of black 96-well flat-bottom plates. The standard reaction contained 50 mM Tris-HCl (pH 7.5), 2.5 mM MnCl2, 100 μM UTP, 40 μg/ml poly(A), 0.1 mg/ml bovine serum albumin (BSA), and 0.25 μM SYTO 9. Different concentrations of FNC were added to the reaction mixtures. The assay was initiated by the addition of EV71 3D^pol, and the fluorescence was recorded at 30°C."}, "[16]": {"tested_on": "CA6", "assay": "Anti-CA6 activity in infected RD cells (RT-qPCR)", "settings": "read-out: EC50 for CA6"}, "[17]": {"tested_on": "EV71, CA16, CA6, CVB3, and EVD68", "assay": "Antiviral activity against a variety of enteroviruses in RD cells"}, "[18]": {"tested_on": "EV71", "set-up": "method as in PMID 18279075", "settings": "RD cells, virus-induced CPE assay ref 27; read-out: 50% effective concentration (EC50) against EV71; cited from earlier work"}, "[19]": {"settings": "vs DMSO treatment group, P < 0.05"}}, "note": "Where two headings read alike, the source gives them in different places.", "data": [{"smiles": "[N-]=[N+]=N[C@]1(CO)O[C@@H](n2ccc(N)nc2=O)[C@@H](F)[C@@H]1O", "note": "[FNC, 2'-deoxy-2'-β-fluoro-4'-azidocytidine]", "values": [{"measurement": "Kd", "setting": "[1]", "result": 6000, "unit": "nM"}, {"measurement": "EC50", "setting": "[2]", "result": 33.8, "unit": "nM"}, {"measurement": "tissue damage, H&E histology", "setting": "[3]; EV71-infected spinal skeletal muscle and hind-limb muscle", "result": "significantly reduced the damage"}, {"measurement": "mortality", "setting": "[3]; EV71 CC063 intracerebral, 1-day-old mice, 1 mg/kg i.p. days 1, 3, 6, 9, 12, 15 days", "result": 20, "unit": "%"}, {"measurement": "EV71 viral load in spine skeletal muscle and hind-limb muscle (RT-qPCR)", "setting": "[3]; [19]", "result": "completely decreased"}, {"measurement": "EV71 viral loads in brain and lung (RT-qPCR)", "setting": "[3]; [19]", "result": "moderately reduced"}, {"measurement": "phosphorylation efficiency relative to deoxycytidine", "setting": "[4]", "result": "up to 3 fold"}, {"measurement": "tissue damage, H&E histology", "setting": "[5]; CA16-infected brain, spinal skeletal muscle, hind-limb muscle", "result": "significantly reduced the damage"}, {"measurement": "mortality", "setting": "[5]; CA16 CC045 intracerebral, 1-day-old mice, 1 mg/kg i.p. days 1, 3, 6, 9, 12, 15 days", "result": 0, "unit": "%"}, {"measurement": "CA16 viral load in all detected tissues (RT-qPCR)", "setting": "[5]; brain, lung, spine skeletal muscle, hind-limb muscle, vs DMSO, P < 0.05", "result": "completely decreased"}, {"measurement": "effect on RSV replication (viral proteins, RNA)", "setting": "[6]", "result": "no inhibitory effect"}, {"measurement": "safe dose", "setting": "[7]", "result": 100, "unit": "µM"}, {"measurement": "safe dose", "setting": "[8]", "result": 10, "unit": "µM"}, {"measurement": "virus titers in supernatants (plaque assay, CPE-based TCID50)", "setting": "[9]; EV71-infected RD cells, increasing doses", "result": "continuously decreasing virus titers"}, {"measurement": "EC50", "setting": "[9]; Enterovirus A, EV71, RD, 48 h, read-out: EC50 against EV71, RD cells, from reduced viral RNA level (RT-qPCR), 48 h", "result": 16.9, "unit": "nM"}, {"measurement": "EV71 VP1 protein by Western blot", "setting": "[9]; RD cells, 100 nM, 48 h postinfection", "result": "could not be detected"}, {"measurement": "anti-EV71 activity, intracellular VP1 protein by Western blot", "setting": "[9]; RD cells, MOI 0.1, 48 h treatment, 1 μM", "result": "obvious anti-EV71 activity"}, {"measurement": "EC50", "setting": "[10]", "result": 52.1, "unit": "nM"}, {"measurement": "effect on H1N1 replication (viral proteins, RNA)", "setting": "[11]", "result": "no inhibitory effect"}, {"measurement": "EC50", "setting": "[12]", "result": 1.55, "unit": "nM"}, {"measurement": "CC50 at 48 h", "setting": "[13]", "result": 3240, "unit": "nM"}, {"measurement": "concentration that did not significantly affect cell viability (safe dose)", "setting": "[14]", "result": 1000, "unit": "nM"}, {"measurement": "RNA synthesis activity of EV71 3Dpol", "setting": "[15]", "result": "inhibited the RNA synthesis activity of EV71 3D^pol in a dose-dependent manner"}, {"measurement": "EC50", "setting": "[16]", "result": 13.4, "unit": "nM"}, {"measurement": "virions in the supernatant and viral titers", "setting": "[17]; CA16, CA6, CVB3, EVD68, RD cells", "result": "suppressed by FNC in a dose-dependent manner"}, {"measurement": "positive- and negative-strand EV RNA synthesis (RT-qPCR)", "setting": "[17]; EV71, CA16, CA6, CVB3, EVD68, RD cells, 48 h", "result": "inhibited both positive- and negative-strand EV RNA synthesis"}, {"measurement": "selectivity indices (CC50/EC50) against EVs", "setting": "[17]; RD cells", "result": "good selectivity indices"}, {"measurement": "EC50", "setting": "[17]; RD, read-out: EC50 against a variety of enteroviruses", "result": "1.55 to 52.1", "unit": "nM"}, {"measurement": "suppression of EVs (VP1 protein expression, viral RNA levels, viral titers)", "setting": "[17]; in vitro cell model", "result": "efficiently suppressed"}]}, {"smiles": "NC(=O)c1ncn([C@@H]2O[C@H](CO)[C@@H](O)[C@H]2O)n1", "note": "[ribavirin]", "values": [{"measurement": "interaction with EV71 3Dpol by ITC", "setting": "[1]; ITC, 25°C, 3 mM ribavirin into 100 μM 3Dpol", "result": "failed to observe the interaction"}, {"measurement": "EC50", "setting": "[18]", "result": 266000, "unit": "nM"}]}]}
